Data as given in patent EP2775836B1, “METHODS FOR TREATING GOUT FLARES” (CymaBay Therapeutics, Inc., priority 2011, dated 2013).

What was measured:
[1] = test system: IL-1β; assay: IL-1β mRNA and secretion in LPS stimulated primary mouse macrophages; format: cell-based; conditions: 75 and 150 µM, 1 hour before 100 ng/mL LPS for 8 hours
Protocol: Methods used in relation to FIGS. 4-5 showing effects of (-)-halofenic acid IL-1β were as follows:
Eight week-old male C57BL/6J mice were injected intra-peritoneally with 2.5 mL of 3% thioglycollate. Three days after injection, mice were sacrificed by cervical dislocation. Macrophages were harvested immediately by injecting 5 mL of PBS into the intra-peritoneal cavity, surgically exposing the intra-peritoneal cavity and aspirating the intra-peritoneal fluid with a 1 mL syringe. Macrophages from multiple animals were pooled and centrifuged at 1500 rpm, 10 min at 4 °C. Contaminating red blood cells were removed from the pellet by lysis with 10 mL RBC lysis buffer for 5min at room temperature, followed by centrifugation at 1500 rpm, 10 min at 4 °C. The cells were washed once and re-suspended in RPMI 1640, 10% FBS/0.1% Pen/Strep and plated into multi-well plates (1,000,000 cells/well for 24 well plates and 100,000 cells/well for 96 well plates). The cells were cultured for 30 hours, re-fed with fresh RPMI 1640, 0.5% FBS and incubated overnight. […]
The cells were harvested in Qiazol lysis solution for gene expression analysis. […] The Ct values for IL-1β were determined using ABI Sequence Detection Software. […] The fold change is then calculated using the formula 2^-[delta][delta]Ct. […]

[2] = Plasma concentration of (-)-halofenic acid after daily oral 400 mg arhalofenate (LC-MS/MS); format: in vivo, human
Protocol: Methods used in relation to FIGS. 1-2 showing the pharmacokinetic profile of (-)-halofenic acid were as follows:
Plasma proteins in human plasma samples containing of (-)-halofenic acid, an internal standard (I.S.) and heparin as the anticoagulant were precipitated with acetonitrile. The samples were vortex mixed, centrifuged and an aliquot was analyzed by reversed phase high performance liquid chromatography using a Phenomenex Polar RP column maintained at 45 °C. The mobile phase was nebulized using heated nitrogen in a Z-spray source/interface and the ionized compounds were detected using a tandem quadrupole mass spectrometer.
The plasma concentrations were rounded to the nearest one-tenth µg/mL before the calculations. Plasma samples with concentrations below the quantifiable limit of 1.0 µg/mL (BQL) were assigned values of zero.

[3] = test system: serum uric acid; conditions: monotherapy at 40, 80, 120, 160 and 240 mg/day, gout patients; cited from earlier work
[4] = test system: serum uric acid; assay: Phase 1 multiple-dose study MBX102-2DM01011b: serum uric acid after daily oral dosing for 10 days; format: in vivo, human; conditions: for Mean % change: Day 9 vs baseline; for Mean change at Day 9: change from baseline; for Mean uric acid at Day 9: healthy adult subjects
Protocol: Methods used in relation to FIG. 3 showing reduction in serum uric acid in subjects over time following once daily dosing with arhalofenate were as follows.
A single centre, Phase 1, placebo- and positive-controlled, double-blind, randomized, dose escalation study (MAD study, MBX102-2DM01011b) was conducted to evaluate the multiple-dose pharmacokinetics (PK) of (-)-halofenate administered as a daily dose orally for 10 days, at the protocol-specified doses in healthy adult subjects. A total of 119 subjects completed study treatment according to protocol: 6 subjects received MBX-102 100 mg/day for 10 days; 6 subjects received MBX-102 200 mg/day for 10 days; 9 subjects received MBX-102 400 mg/day for 10 days; 20 subjects received MBX-102 600 mg/day for 10 days; 10 subjects received MBX-102 600 mg Enteric Coated (EC) /day for 10 days; 9 subjects received MBX-102 800 mg EC/day for 10 days; 10 subjects received MBX-102 1000 mg EC/day for 10 days; 24 subjects received placebo treatment daily for 10 days; and 25 subjects received naproxen 500 mg b.i.d. monotherapy for 7 days. In this study, serum uric acid was measured at screening and on Days 1, 3, 5, 7, 9, 14, and 21.

[5] = test system: high sensitivity C-Reactive Protein (hs-CRP); assay: Phase 1 multiple-dose study M102-0507: change in hs-CRP in type 2 diabetic patients on Glynase; format: in vivo, human
Protocol: Data presented in FIGS. 6 and 7 were generated based on a single-center, Phase 1, randomized, single-blind, multiple-dose study (M102-0507) evaluating the effect of (-)-halofenate given to type 2 diabetic patients who were receiving a stable dose of Glynase® (micronized glyburide). Eligible patients were initially dosed for 3 days with Glynase® 3 mg/day, and if safety and tolerability were acceptable to the Investigator, the dose was increased to Glynase® 6 mg/day for 4 days, followed by 14 days of Glynase® 6 mg and either (-)-halofenate 400 mg or 600 mg administration until Day 21, the patients were discharged on Day 22.
In this study, change in high sensitivity C-Reactive Protein (hs-CRP) from baseline was one of the endpoints. […] At Day 22, the mean percentage changes in C-reactive protein compared to Day 1 were -21.1% and -32.9% in Group 1 ((-)-halofenate 400 mg) and Group 2 ((-)-halofenate 600 mg), respectively.

[6] = test system: 3T3-L1 adipocytes; assay: Example 1: suppression of uric-acid induced inflammation in vitro; format: cell-based, murine; conditions: 50-150 µM, uric acid 5 or 15 mg/dL, 3 or 7 days
Protocol: Differentiated murine 3T3-L1 adipocytes are cultured in vitro in 24 well plates. To the culture medium (-)-halofenic acid is added at a final concentration of 50- 150 µM prior to the addition of uric acid at 5 mg/dL or 15 mg/dL and the culture continued for 3 or 7 days. A parallel culture of cells is conducted in the presence of a vehicle such as dimethylsulfoxide (DMSO). At the end of the culture period media is removed, cells are isolated and messenger RNA prepared. The levels of secreted cytokines representing a panel of pro-inflammatory cytokines including but not restricted to monocyte chemoatractant protein-1 (MCP-1), tumor necrosis factor α (TNF-α), interlekin-1β, (IL-1β), interleukin-6 (IL-6) and interleukin-12 (Il-12) are determined in the media isolated from the cells using commercially available cytokine assay kits. The levels of gene expression for the mRNAs for a panel of pro-inflammatory cytokines including but not restricted to monocyte chemoatractant protein-1 (MCP-1), tumor necrosis factor α (TNF-α), interlekin-1β, (IL-1β), interleukin-6 (IL-6) and interleukin-12 (Il-12) are determined using real-time PCR. […] A similar study is also conducted in primary mouse macrophages and human umbilical vein endothelial cells.

[7] = 600 mg Enteric Coated (EC)/day for 10 days

Structure (SMILES): O=C(O)C(Oc1cccc(C(F)(F)F)c1)c1ccc(Cl)cc1 (single isomer, unassigned; (-)) [(-)-halofenic acid, (-)-4-chlorophenyl-(3-trifluoromethylphenoxy) acetic acid]
- messenger RNA encoding the pro-inflammatory cytokine IL-1β ([1]; FIG. 4): lower the messenger RNA
- secretion of the pro-inflammatory cytokine IL-1β ([1]; FIG. 5): lowering the secretion
- intraday plasma concentration ([2]; Day 15 and Day 30, daily oral 400 mg arhalofenate, FIG. 2): relatively constant
- half-life ([2]; plasma, daily oral 400 mg arhalofenate for 30 days, FIGS. 1-2): long half-life

Structure (SMILES): O=c1[nH]cnc2c(CN3C[C@H](CO)[C@@H](O)C3)c[nH]c12 [BCX4208, 7-(((3R,4R)-3-hydroxy-4-(hydroxymethyl)pyrrolidin-1-yl)methyl)-3H-pyrrolo[3,2-d]pyrimidin-4(5H)-one]
- serum uric acid [3]: rapidly and significantly reduced

Structure (SMILES): CC(=O)NCCOC(=O)[C@H](Oc1cccc(C(F)(F)F)c1)c1ccc(Cl)cc1 [(-)-halofenate, (-)-(R)-(4-chloro-phenyl)-(3-trifluoromethyl-phenoxy)-acetic acid 2-acetylamino-ethyl ester]
- Mean % change ([4]; 400 mg/day orally for 10 days): -21%
- Mean change at Day 9 ([4]; 400 mg/day orally for 10 days): -1.02 mg/dL
- Mean uric acid at Day 9 ([4]; 400 mg/day orally for 10 days): 3.89 mg/dL
- Mean % change [4, 7]: -30%
- Mean change at Day 9 [4, 7]: -1.69 mg/dL
- Mean uric acid at Day 9 [4, 7]: 3.92 mg/dL
- Mean % change ([4]; 600 mg/day orally for 10 days): -33%
- Mean change at Day 9 ([4]; 600 mg/day orally for 10 days): -1.65 mg/dL
- Mean uric acid at Day 9 ([4]; 600 mg/day orally for 10 days): 3.40 mg/dL
- Mean % change ([4]; 800 mg EC/day for 10 days): -32%
- Mean change at Day 9 ([4]; 800 mg EC/day for 10 days): -1.77 mg/dL
- Mean uric acid at Day 9 ([4]; 800 mg EC/day for 10 days): 3.83 mg/dL
- Mean % change ([4]; 1000 mg EC/day for 10 days): -45%
- Mean change at Day 9 ([4]; 1000 mg EC/day for 10 days): -2.44 mg/dL
- Mean uric acid at Day 9 ([4]; 1000 mg EC/day for 10 days): 3.04 mg/dL
- reduction in serum uric acid ([4]; all dose levels tested, dose dependent, over a period of time): gradual reduction
- Day 22 hs-CRP ([5]; (-)-halofenate 600 mg/day Day 8-21 with Glynase 6 mg/day, type 2 diabetic patients): 4.4
- mean percentage change in C-reactive protein at Day 22 compared to Day 1 ([5]; Group 1: 400 mg/day Day 8-21 with Glynase 6 mg/day): -21.1%
- Mean % change from Day 8 (Day 22 hs-CRP) ([5]; Group 2: 600 mg/day Day 8-21 with Glynase 6 mg/day, Day 8 = Glyburide only phase): -33.3%
- expression and secretion of panel of pro-inflammatory cytokines [6]: reduced level of expression and consequently secretion
- uptake of uric acid into 3T3-L1 adipocytes [6]: prevents the uptake of uric acid
